Results as given in ChEMBL document CHEMBL3751718, “Synthesis and biological evaluation of lipid-like 5-(2-hydroxyethyl)-4-methyl-1,3-thiazole derivatives as potential anticancer and antimicrobial agents” (Medchemcomm, 2015).
In brackets after ≈: the same amount, converted by molar mass. Activity calls are given as the source filed them. The rule behind the calls is not given here.

Columns and labels:
Candida albicans [1] = assay: Antifungal activity against Candida albicans MSCL 378 after 24 hrs by broth dilution method; assay type: functional; conditions: MSCL 378, 24 h
Candida albicans [2] = assay: Fungicidal activity against Candida albicans MSCL 378 incubated for 24 hrs followed by colony transfer to agar plates for 24 hrs by colony counting based assay; assay type: functional; conditions: MSCL 378, 24 h, read-out: MFC99.9
Aspergillus niger [3] = assay: Antifungal activity against Aspergillus niger MSCL 324 after 24 hrs by broth dilution method; assay type: functional; conditions: MSCL 324, 24 h
Aspergillus niger [4] = assay: Fungicidal activity against Aspergillus niger MSCL 324 incubated for 24 hrs followed by colony transfer to agar plates for 24 hrs by colony counting based assay; assay type: functional; conditions: MSCL 324, 24 h, read-out: MFC99.9
Candida albicans [5] = assay: Antifungal activity against Candida albicans MSCL 378 at 2 mg/ml after 48 hrs by agar dish diffusion method; assay type: functional; conditions: MSCL 378, 48 h, read-out: DIZ
Aspergillus niger [6] = assay: Antifungal activity against Aspergillus niger MSCL 324 at 2 mg/ml after 48 hrs by agar dish diffusion method; assay type: functional; conditions: MSCL 324, 48 h, read-out: DIZ
Aspergillus niger [7] = assay: Antifungal activity against Aspergillus niger MSCL 324 at 4 mg/ml after 48 hrs by agar dish diffusion method; assay type: functional; conditions: MSCL 324, 48 h, read-out: DIZ
Staphylococcus aureus [8] = assay: Antibacterial activity against Staphylococcus aureus MSCL 334 at 2 mg/ml after 24 hrs by agar dish diffusion method; assay type: functional, organism-based
Staphylococcus aureus [9] = assay: Antibacterial activity against Staphylococcus aureus MSCL 334 at 4 mg/ml after 24 hrs by agar dish diffusion method; assay type: functional, organism-based
Bacillus cereus [10] = assay: Antibacterial activity against Bacillus cereus MSCL 330 at 2 mg/ml after 24 hrs by agar dish diffusion method; assay type: functional, organism-based
Bacillus cereus [11] = assay: Antibacterial activity against Bacillus cereus MSCL 330 at 4 mg/ml after 24 hrs by agar dish diffusion method; assay type: functional, organism-based
Escherichia coli [12] = assay: Antibacterial activity against Escherichia coli MSCL 332 at 2 mg/ml after 24 hrs by agar dish diffusion method; assay type: functional, organism-based
Escherichia coli [13] = assay: Antibacterial activity against Escherichia coli MSCL 332 at 4 mg/ml after 24 hrs by agar dish diffusion method; assay type: functional, organism-based
Pseudomonas aeruginosa [14] = assay: Antibacterial activity against Pseudomonas aeruginosa MSCL 331 at 2 mg/ml after 24 hrs by agar dish diffusion method; assay type: functional, organism-based
Pseudomonas aeruginosa [15] = assay: Antibacterial activity against Pseudomonas aeruginosa MSCL 331 at 4 mg/ml after 24 hrs by agar dish diffusion method; assay type: functional, organism-based
Proteus mirabilis [16] = assay: Antibacterial activity against Proteus mirabilis MSCL 590 at 2 mg/ml after 24 hrs by agar dish diffusion method; assay type: functional, organism-based
Proteus mirabilis [17] = assay: Antibacterial activity against Proteus mirabilis MSCL 590 at 4 mg/ml after 24 hrs by agar dish diffusion method; assay type: functional, organism-based

OC(Cn1cncn1)(Cn1cncn1)c1ccc(F)cc1F [FLUCONAZOLE]
MIC (Candida albicans [1]): 32 µg/mL (≈ 104 µM) | MFC (Candida albicans [2]): > 256 µg/mL | MIC (Aspergillus niger [3]): 8 µg/mL (≈ 26.1 µM) | MFC (Aspergillus niger [4]): > 256 µg/mL | zone of inhibition at 2000 µg/mL (Candida albicans [5]): 10 mm | zone of inhibition at 2000 µg/mL (Aspergillus niger [6]): 11 mm | zone of inhibition at 4000 µg/mL (Aspergillus niger [7]): 18 mm | diameter of the inhibition zone (DIZ) (Staphylococcus aureus [8]): inactive | diameter of the inhibition zone (DIZ) (Staphylococcus aureus [9]): inactive | diameter of the inhibition zone (DIZ) (Bacillus cereus [10]): inactive | diameter of the inhibition zone (DIZ) (Bacillus cereus [11]): inactive | diameter of the inhibition zone (DIZ) (Escherichia coli [12]): inactive | diameter of the inhibition zone (DIZ) (Escherichia coli [13]): inactive | diameter of the inhibition zone (DIZ) (Pseudomonas aeruginosa [14]): inactive | diameter of the inhibition zone (DIZ) (Pseudomonas aeruginosa [15]): inactive | diameter of the inhibition zone (DIZ) (Proteus mirabilis [16]): inactive | diameter of the inhibition zone (DIZ) (Proteus mirabilis [17]): inactive
